# Assay results: patent US20230093861A1, “RAPAMYCIN ANALOGS AS MTOR INHIBITORS” (Revolution Medicines, Inc., priority 2017, published 2023)
# Tests used:
# P-P70S6K (T389) = assay: Cell based AlphaLISA assay, inhibition of P-P70S6K (T389) (mTORC1 substrate phosphorylation) in MDA-MB-468 cells; details: Homo sapiens, 4 h, AlphaLISA, two to four hours at 37° C., read-out: pIC50 for Inhibition of mTORC1 and mTORC2 Substrate Phosphorylation, P-P70S6K-(T389) (converted)
# How it was run: (§1)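 Cells are exposed to inhibitor, then the assay buffer is taken off and kit lysis buffer added. Lysates undergo AlphaLISA SureFire Ultra detection in duplicate.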
# P-4E-BP1 (T37/46) = assay: Cell based AlphaLISA assay, inhibition of P-4E-BP1 (T37/46) (mTORC1 substrate phosphorylation) in MDA-MB-468 cells; details: Homo sapiens, MDA-MB-468, 4 h, AlphaLISA, two to four hours at 37° C., read-out: pIC50 for Inhibition of mTORC1 and mTORC2 Substrate Phosphorylation, P-4E-BP1-(T37/46) (converted)
# How it was run: as §1
# P-Akt (S473) = assay: Cell based AlphaLISA assay, inhibition of P-Akt (S473) (mTORC2 substrate phosphorylation) in MDA-MB-468 cells; details: Homo sapiens, MDA-MB-468, 4 h, AlphaLISA, two to four hours at 37° C., read-out: pIC50 for Inhibition of mTORC1 and mTORC2 Substrate Phosphorylation, p-AKT 1/2/3 -(S473) (converted)
# How it was run: as §1
SMILES,IC50 (P-P70S6K (T389)) [nM],IC50 (P-4E-BP1 (T37/46)) [nM],IC50 (P-Akt (S473)) [nM]
CO[C@H]1C[C@@H]2CC[C@@H](C)[C@@](O)(O2)C(=O)C(=O)N2CCCC[C@H]2C(=O)O[C@H]([C@H](C)C[C@@H]2CC[C@@H](O)[C@H](OC)C2)C[C@@H](O)[C@H](C)/C=C(\C)[C@@H](O)[C@@H](OC)C(=NOCc2cn(CCOCCOCCOCCOCCOCCOCCOCCOCCC(=O)NCCCCn3nc(-c4ccc5oc(N)nc5c4)c4c(N)ncnc43)nn2)[C@H](C)C[C@H](C)/C=C/C=C/C=C/1C [Example 50],1 to 10,3.16 to 31.6,31.6 to 1000
CO[C@H]1C[C@@H]2CC[C@@H](C)[C@@](O)(O2)C(=O)C(=O)N2CCCC[C@H]2C(=O)O[C@H]([C@H](C)C[C@@H]2CC[C@H](n3nncc3-c3cccc(-c4cnc(N5CCN(C(=O)CCc6cn(CCOCCOCCC(=O)NCCCCn7nc(-c8ccc9oc(N)nc9c8)c8c(N)ncnc87)nn6)CC5)nc4)c3)[C@H](OC)C2)CC(=O)[C@H](C)/C=C(\C)[C@@H](O)[C@@H](OC)C(=O)[C@H](C)C[C@H](C)/C=C/C=C/C=C/1C [Example 49],< 1,< 3.16,31.6 to 1000
CO[C@H]1C[C@@H]2CC[C@@H](C)[C@@](O)(O2)C(=O)C(=O)N2CCCC[C@H]2C(=O)O[C@H]([C@H](C)C[C@@H]2CC[C@@H](OCCCCc3cn(CCOCCOCCOCCOCCOCCOCCOCCOCCC(=O)N4CCC(Cn5nc(-c6ccc7oc(N)nc7c6)c6c(N)ncnc65)C4)nn3)[C@H](OC)C2)CC(=O)[C@H](C)/C=C(\C)[C@@H](O)[C@@H](OC)C(=O)[C@H](C)C[C@H](C)/C=C/C=C/C=C/1C (stereo partly drawn) [Example 7],< 1,< 3.16,< 3.16
CO[C@H]1C[C@@H]2CC[C@@H](C)[C@@](O)(O2)C(=O)C(=O)N2CCCC[C@H]2C(=O)O[C@H]([C@H](C)C[C@@H]2CC[C@H](n3cc(COC(=O)NCCOCCOCCOCCOCCC(=O)NCCOCCOCCOCCOCCC(=O)NCCCCn4nc(-c5cc6cc(O)ccc6[nH]5)c5c(N)ncnc54)nn3)[C@H](OC)C2)CC(=O)[C@H](C)/C=C(\C)[C@@H](O)[C@@H](OC)C(=O)[C@H](C)C[C@H](C)/C=C/C=C/C=C/1C [Example 127],1 to 10,3.16 to 31.6,31.6 to 1000
CO[C@H]1C[C@@H]2CC[C@@H](C)[C@@](O)(O2)C(=O)C(=O)N2CCCC[C@H]2C(=O)O[C@H]([C@H](C)C[C@@H]2CC[C@@H](O)[C@H](OC)C2)C[C@@H](O)[C@H](C)/C=C(\C)[C@@H](O)[C@@H](OC)C(=NOCc2cn(CCOCCOCCOCCOCCOCCOCCC(=O)NCCCCn3nc(-c4cc5cc(O)ccc5[nH]4)c4c(N)ncnc43)nn2)[C@H](C)C[C@H](C)/C=C/C=C/C=C/1C [Example 93],1 to 10,3.16 to 31.6,> 1000
COc1cccc2cc(-c3nc([C@H]4CC[C@H](C(=O)NCCOCCOCCOCCNC(=O)CCOCCOCCOCCOCCn5cc(CCCCO[C@@H]6CC[C@@H](C[C@@H](C)[C@@H]7CC(=O)[C@H](C)/C=C(\C)[C@@H](O)[C@@H](OC)C(=O)[C@H](C)C[C@H](C)/C=C/C=C/C=C(\C)[C@@H](OC)C[C@@H]8CC[C@@H](C)[C@@](O)(O8)C(=O)C(=O)N8CCCC[C@H]8C(=O)O7)C[C@H]6OC)nn5)CC4)n4ncnc(N)c34)[nH]c12 [Example 189],< 1,< 3.16,3.16 to 31.6
CO[C@H]1C[C@@H]2CC[C@@H](C)[C@@](O)(O2)C(=O)C(=O)N2CCCC[C@H]2C(=O)O[C@H]([C@H](C)C[C@@H]2CC[C@H](n3cc(CCCC(=O)NCCOCCOCCOCCC(=O)NCCOCCOCCOCCC(=O)NCCCCn4nc(-c5ccc6oc(N)nc6c5)c5c(N)ncnc54)nn3)[C@H](OC)C2)C/C(=N/OC(C)(C)C)[C@H](C)/C=C(\C)[C@@H](O)[C@@H](OC)C(=O)[C@H](C)C[C@H](C)/C=C/C=C/C=C/1C [Example 177],10 to 1000,> 1000,> 1000
CO[C@H]1C[C@@H]2CC[C@@H](C)[C@@](O)(O2)C(=O)C(=O)N2CCCC[C@H]2C(=O)O[C@H]([C@H](C)C[C@@H]2CC[C@@H](OCCCCc3cn(CCOCCOCCOCCOCCOCCOCCOCCOCCC(=O)NCCS(=O)(=O)c4ccc(C(=O)N5CCOc6ccc(-c7ccc(N)nc7)cc6C5)c(C)c4F)nn3)[C@H](OC)C2)CC(=O)[C@H](C)/C=C(\C)[C@@H](O)[C@@H](OC)C(=O)[C@H](C)C[C@H](C)/C=C/C=C/C=C/1C [Example 96],< 1,< 3.16,3.16 to 31.6
CO[C@H]1C[C@@H]2CC[C@@H](C)[C@@](O)(O2)C(=O)C(=O)N2CCCC[C@H]2C(=O)O[C@H]([C@H](C)C[C@@H]2CC[C@@H](OCCC(C)(C)Cc3cn(CCOCCOCCOCCOCCOCCOCCC(=O)NCCCCn4nc(-c5ccc6oc(N)nc6c5)c5c(N)ncnc54)nn3)[C@H](OC)C2)CC(=O)[C@H](C)/C=C(\C)[C@@H](O)[C@@H](OC)C(=O)[C@H](C)C[C@H](C)/C=C/C=C/C=C/1C [Example 59],< 1,< 3.16,3.16 to 31.6
CO[C@H]1C[C@@H]2CC[C@@H](C)[C@@](O)(O2)C(=O)C(=O)N2CCCC[C@H]2C(=O)O[C@H]([C@H](C)C[C@@H]2CC[C@H](n3nncc3-c3cccc(-c4cnc(N5CCN(Cc6cn(CCOCCOCCOCCOCCOCCC(=O)NCCCCn7nc(-c8ccc9oc(N)nc9c8)c8c(N)ncnc87)nn6)CC5)nc4)c3)[C@H](OC)C2)CC(=O)[C@H](C)/C=C(\C)[C@@H](O)[C@@H](OC)C(=O)[C@H](C)C[C@H](C)/C=C/C=C/C=C/1C [Example 29],< 1,< 3.16,3.16 to 31.6
CO[C@H]1C[C@@H]2CC[C@@H](C)[C@@](O)(O2)C(=O)C(=O)N2CCCC[C@H]2C(=O)O[C@H]([C@H](C)C[C@@H]2CC[C@H](n3cc(COC(=O)NCCOCCOCCOCCC(=O)NCCOCCOCCC(=O)NCCCCn4nc(-c5cc6cc(O)ccc6[nH]5)c5c(N)ncnc54)nn3)[C@H](OC)C2)CC(=O)[C@H](C)/C=C(\C)[C@@H](O)[C@@H](OC)C(=O)[C@H](C)C[C@H](C)/C=C/C=C/C=C/1C [Example 121],1 to 10,31.6 to 1000,> 1000
CO[C@H]1C[C@@H]2CC[C@@H](C)[C@@](O)(O2)C(=O)C(=O)N2CCCC[C@H]2C(=O)O[C@H]([C@H](C)C[C@@H]2CC[C@H](n3cc(COC(=O)NCCOCCOCCOCCC(=O)NCCOCCOCCOCCC(=O)NCCCCn4nc(-c5ccc6oc(N)nc6c5)c5c(N)ncnc54)nn3)[C@H](OC)C2)CC(=O)[C@H](C)/C=C(\C)[C@@H](O)[C@@H](OC)C(=O)[C@H](C)C[C@H](C)/C=C/C=C/C=C/1C [Example 122],1 to 10,3.16 to 31.6,3.16 to 31.6
CO[C@H]1C[C@@H]2CC[C@@H](C)[C@@](O)(O2)C(=O)C(=O)N2CCCC[C@H]2C(=O)O[C@H]([C@H](C)C[C@@H]2CC[C@@H](O)[C@H](OC)C2)C[C@@H](OC)[C@H](C)/C=C(\C)[C@@H](O)[C@@H](OC)/C(=N/OCc2cn(CCOCCOCCOCCOCCOCCOCCC(=O)NCCCCn3nc(-c4ccc5oc(N)nc5c4)c4c(N)ncnc43)nn2)[C@H](C)C[C@H](C)/C=C/C=C/C=C/1C [Example 14],1 to 10,3.16 to 31.6,31.6 to 1000
CO[C@H]1C[C@@H]2CC[C@@H](C)[C@@](O)(O2)C(=O)C(=O)N2CCCC[C@H]2C(=O)O[C@H]([C@H](C)C[C@@H]2CC[C@H](n3cc(-c4cnc(N5CCN(c6ncc(C(=O)NCCOCCC(=O)NCCCCn7nc(-c8ccc9oc(N)nc9c8)c8c(N)ncnc87)cn6)CC5)nc4)nn3)[C@H](OC)C2)CC(=O)[C@H](C)/C=C(\C)[C@@H](O)[C@@H](OC)C(=O)[C@H](C)C[C@H](C)/C=C/C=C/C=C/1C [Example 109],< 1,> 1000,> 1000
CO[C@H]1C[C@@H]2CC[C@@H](C)[C@@](O)(O2)C(=O)C(=O)N2CCCC[C@H]2C(=O)O[C@H]([C@H](C)C[C@@H]2CC[C@H](n3cc(-c4cnc(N5CCN(c6ncc(C(=O)NCCOCCOCCOCCOCCC(=O)NCCCCn7nc(-c8cc9cc(O)ccc9[nH]8)c8c(N)ncnc87)cn6)CC5)nc4)nn3)[C@H](OC)C2)CC(=O)[C@H](C)/C=C(\C)[C@@H](O)[C@@H](OC)C(=O)[C@H](C)C[C@H](C)/C=C/C=C/C=C/1C [Example 116],< 1,3.16 to 31.6,> 1000
CCO[C@@H]1C[C@@H]([C@H](C)C[C@@H]2CC[C@H](n3cc(CCCC(=O)NCCOCCOCCOCCC(=O)NCCOCCOCCOCCC(=O)NCCCCn4nc(-c5ccc6oc(N)nc6c5)c5c(N)ncnc54)nn3)[C@H](OC)C2)OC(=O)[C@@H]2CCCCN2C(=O)C(=O)[C@]2(O)O[C@@H](CC[C@H]2C)C[C@H](OC)/C(C)=C/C=C/C=C/[C@@H](C)C[C@@H](C)C(=O)[C@H](OC)[C@H](O)/C(C)=C/[C@H]1C [Example 167],1 to 10,31.6 to 1000,31.6 to 1000
